Data from US20080280837A1, “Biologically Active Compounds with Anti-Angiogenic Properties” (priority 2004, published 2008).

Target: T1, Human SST5 somatostatin receptor (SSTR5) (Homo sapiens, UniProt P35346)
T1 construct: expressed in transfected cells; host or cells: HEK-293 EBNA
Test: Filter plate assay for SST5 receptor, displacement of [125I]SST-14
Assay type: binding
Method in brief: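 HEK-293 EBNA membranes expressing human SST5 (5.5 μg) incubated 60 min at 25 °C with 4 nM [125I]SST-14 and compound in pH 7.5 Tris/EGTA/MgCl2/sucrose buffer. Bound radioactivity collected on PEI-coated glass fiber filters and counted; triplicate 1:5 dilution series from 125 μM, non-specific binding with excess cold ligand.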

T1 sequence (P35346 whole entry): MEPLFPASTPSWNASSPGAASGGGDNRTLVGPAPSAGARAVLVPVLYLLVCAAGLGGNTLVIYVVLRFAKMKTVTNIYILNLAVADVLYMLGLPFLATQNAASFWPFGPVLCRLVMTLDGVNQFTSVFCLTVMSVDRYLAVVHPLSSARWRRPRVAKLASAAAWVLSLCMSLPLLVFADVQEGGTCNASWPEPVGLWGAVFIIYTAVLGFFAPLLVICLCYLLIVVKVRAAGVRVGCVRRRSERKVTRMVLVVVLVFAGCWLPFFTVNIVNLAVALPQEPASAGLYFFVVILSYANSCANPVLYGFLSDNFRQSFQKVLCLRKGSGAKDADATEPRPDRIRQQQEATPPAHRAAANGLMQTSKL

| SMILES | SSTR5 Inhib 0.5 uM % (inhibition of binding of SST-14 to SSTR5) [%] | SSTR5 Inhib 10 uM % (inhibition of binding of SST-14 to SSTR5) [%] |
| --- | --- | --- |
| COC[C@H]1OC(OCc2ccc(Cl)cc2)[C@H](NC(=O)CCCN)[C@@H](OCc2cccc(O)c2)[C@@H]1O (stereo partly shown) [Compound 113] | 50 | 83 |
| COC[C@H]1OC(OCc2ccccc2)[C@H](NC(=O)CCCN)[C@@H](OCc2ccc(-c3ccccc3)cc2)[C@@H]1O (stereo partly shown) [Compound 95] | 44 | 85 |
| COC[C@H]1OC(OCc2ccc3ccccc3c2)[C@H](NC(=O)CCNC(=N)N)[C@@H](OCc2ccc(-c3ccccc3)cc2)[C@@H]1O (stereo partly shown) [Compound 52] | 69 | 92 |
| COC[C@H]1OC(OCc2ccc(-c3ccccc3)cc2)[C@H](NC(=O)CCCN)[C@@H](OCc2ccc3ccccc3c2)[C@@H]1O (stereo partly shown) [Compound 38] | 79 | 95 |
| COC[C@H]1OC(OCc2ccccc2)[C@H](NC(=O)CCN)[C@H](OCc2ccc3ccccc3c2)[C@@H]1O (stereo partly shown) [Compound 18] | 90 | 98 |
| COC[C@H]1OC(OCc2ccc3ccccc3c2)[C@H](NC(=O)CNC(=N)N)[C@H](OCc2ccc(Cl)cc2)[C@@H]1O (stereo partly shown) [Compound 133] | 24 | 80 |
| COC[C@H]1OC(OCc2ccc3ccccc3c2)[C@H](NC(=O)CCCN)[C@@H](OCc2ccccc2)[C@@H]1O (stereo partly shown) [Compound 68] | 46 | 89 |
| COC[C@H]1OC(OCc2ccccc2)[C@H](NC(=O)CNC(=N)N)[C@H](OCc2ccc3ccccc3c2)[C@@H]1O (stereo partly shown) [Compound 162] | 30 | 74 |
| COC[C@H]1OC(OCc2ccccc2)[C@H](NC(=O)CCN)[C@H](OCc2ccc(-c3ccccc3)cc2)[C@@H]1O (stereo partly shown) [Compound 54] | 60 | 91 |
| CSC1O[C@H](COCc2ccc3ccccc3c2)[C@@H](O)[C@@H](OCc2ccc(Cl)cc2)[C@H]1NC(=O)CNC(=N)N (stereo partly shown) [Compound 116] | 42 | 82 |
| COC[C@H]1OC(OCc2ccc3ccccc3c2)[C@H](NC(=O)CCCNC(=N)N)[C@@H](OCc2ccc3ccccc3c2)[C@@H]1O (stereo partly shown) [Compound 75] | 61 | 89 |
| COC[C@H]1OC(OCc2ccc3ccccc3c2)[C@H](NC(=O)CNC(=N)N)[C@H](OCc2ccc3ccccc3c2)[C@@H]1O (stereo partly shown) [Compound 174] | 31 | 71 |
| COC[C@H]1OC(OCCc2ccccc2)[C@H](NC(=O)CCCNC(=N)N)[C@@H](OCc2ccc(-c3ccccc3)cc2)[C@@H]1O (stereo partly shown) [Compound 132] | 39 | 80 |
| COC[C@H]1OC(OCc2ccccc2)[C@H](NC(=O)CNC(=N)N)[C@H](OCc2ccc(-c3ccccc3)cc2)[C@@H]1O (stereo partly shown) [Compound 119] | 37 | 81 |
| COC[C@H]1OC(OCc2ccccc2)[C@H](NC(=O)CCCN)[C@H](OCc2ccc(Cl)cc2)[C@@H]1O (stereo partly shown) [Compound 59] | 66 | 90 |
| COC[C@H]1OC(OCc2ccc(-c3ccccc3)cc2)[C@H](NC(=O)CCCN)[C@@H](OCc2ccc(Cl)cc2)[C@@H]1O (stereo partly shown) [Compound 74] | 64 | 89 |
| COC[C@H]1OC(OCc2ccc3ccccc3c2)[C@H](NC(=O)CCNC(=N)N)[C@H](OCc2ccccc2)[C@@H]1O (stereo partly shown) [Compound 85] | 54 | 87 |
| COC[C@H]1OC(OCc2ccc3ccccc3c2)[C@H](NC(=O)CCN)[C@H](OCc2ccc(-c3ccccc3)cc2)[C@@H]1O (stereo partly shown) [Compound 26] | 77 | 96 |
| CSC1O[C@H](COCc2ccc(Cl)cc2)[C@@H](O)[C@@H](OCc2ccc3ccccc3c2)[C@H]1NC(=O)CCCNC(=N)N (stereo partly shown) [Compound 49] | 60 | 92 |
| CSC1O[C@H](COCc2ccccc2)[C@@H](O)[C@@H](OCc2ccc(-c3ccccc3)cc2)[C@H]1NC(=O)CCCN (stereo partly shown) [Compound 94] | 45 | 86 |
